pIC50: −log10 of the molar value.
Target: T1, Coenzyme A biosynthesis bifunctional protein CoaBC (Mycobacterium tuberculosis (strain ATCC 25618 / H37Rv), UniProt P9WNZ1)
T1 sequence (P9WNZ1 whole entry): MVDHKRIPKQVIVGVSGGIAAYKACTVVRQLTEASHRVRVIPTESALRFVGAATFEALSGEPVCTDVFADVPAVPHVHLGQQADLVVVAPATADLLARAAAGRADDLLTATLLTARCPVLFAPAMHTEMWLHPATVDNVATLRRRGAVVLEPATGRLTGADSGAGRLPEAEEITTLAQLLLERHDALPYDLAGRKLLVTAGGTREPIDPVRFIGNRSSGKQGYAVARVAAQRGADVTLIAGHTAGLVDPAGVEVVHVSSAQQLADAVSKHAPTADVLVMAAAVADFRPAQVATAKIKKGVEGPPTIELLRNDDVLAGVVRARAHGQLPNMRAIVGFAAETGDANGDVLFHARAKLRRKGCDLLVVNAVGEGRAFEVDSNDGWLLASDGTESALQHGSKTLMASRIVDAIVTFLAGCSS
Experiment: Biomol Green assay for MtCoaBC inhibitor, OD650 read
Type: functional

| SMILES | pIC50 |
| --- | --- |
| CN(C)C(=O)CN1CCC2(CCCN(Cc3cccn3C)C2)C1=O (stereo not given) | < 4.52 |
| CC(CS(C)(=O)=O)N(C(=O)CCc1cccc(F)c1)C1CC1 (stereo not given) | < 4.52 |
| CC(C)c1noc(C[S+]([O-])CC(=O)Nc2ccc(F)c(F)c2)n1 (stereo not given) | < 4.52 |
| O=C(NCCc1ccccn1)c1n[nH]c2c1CCC2 | < 4.52 |
| NS(=O)(=O)c1cccnc1Nc1c(Cl)cccc1Cl | < 4.52 |
| Cc1cccc(CN2C[C@@H](F)[C@@H](OCc3nc4ccccc4[nH]3)C2)n1 | < 4.52 |
| Cc1ccc(CCCC(=O)N(C)CCN2CCOCC2)cc1 | < 4.52 |
| Cc1cc(C)n(-c2cccc(C(=O)Nc3n[nH]c(C4CCCO4)n3)c2)n1 (stereo not given) | < 4.52 |
| O=c1c2ccccc2nc2n1CCC2O (stereo not given) | < 4.52 |
| COc1ccc(NC2(C(=O)N3CCCn4cncc4C3)CCCC2)cc1 | < 4.52 |
| Cc1cc(C)nc(N2CCCC(C(=O)Nc3n[nH]c(C(C)C)n3)C2)n1 (stereo not given) | < 4.52 |
| CC(C(=O)N1CCCC1)S(=O)(=O)Cc1noc(C(C)(C)C)n1 (stereo not given) | < 4.52 |
| O=C(CCCC1CCCC1)NS(=O)(=O)CC1CC1 | < 4.52 |
| NC(=O)C1CCN(S(=O)(=O)c2cnn(-c3ccccc3)c2)C1 (stereo not given) | < 4.52 |
| O=c1oc2ccccc2n1CCCN1CCCC1c1ccc(O)cc1 (stereo not given) | < 4.52 |
| c1ccc(Cc2noc(CCNC3CCOC4(CCOCC4)C3)n2)cc1 (stereo not given) | < 4.52 |
| Cc1nnc2n1CC(CNCc1nc(-c3cccs3)no1)CC2 (stereo not given) | < 4.52 |
| COc1ccc(CN[C@@H]2CO[C@H](CNC(=O)N3CCOCC3)[C@H]2O)cc1 | < 4.52 |
| Cc1csc(CN2CCC[C@]3(C[C@H](Oc4ccccn4)CO3)C2)n1 | < 4.52 |
| Cn1ncnc1NS(=O)(=O)c1ccc(F)cc1Cl | < 4.52 |
| Cc1cccc(C(=O)NCC2CCS(=O)(=O)C2)n1 (stereo not given) | < 4.52 |
| Cc1nnc(CN(C)S(=O)(=O)c2ccc(Br)cc2Cl)n1C | < 4.52 |
| CCc1nnc(SCc2nonc2C)n1C1CC1 | < 4.52 |
| CS(=O)(=O)c1ccc(-c2c[nH]c([C@@H]3COCCN3)n2)cc1 | < 4.52 |
| O=C1CN(Cc2cn(CC3CCCN(C4CCSCC4)C3)nn2)CCN1 (stereo not given) | < 4.52 |

| SMILES | pIC50 |
| --- | --- |
| CCC(=O)N1CCc2[nH]cnc2C12CCN(CC1CCOC1)CC2 (stereo not given) | < 4.52 |
| CN(Cc1ccc(F)cc1)C(=O)NCc1nnc2n1CCC2 | < 4.52 |
| COc1cccc(Cc2nc3c([nH]2)CC(C)(C)CNC3=O)c1OC | < 4.52 |
| O=C1O[C@@H]2CN(c3cnccn3)C[C@@H]2N1CCCc1ccc(F)cc1 | < 4.52 |
| Cc1ccc(S(=O)(=O)NC[C@H]2OC[C@@H](NCc3cccs3)[C@@H]2O)cc1 | < 4.52 |
| CN1CCCC1c1ccc(N2CCOCC2)cn1 (stereo not given) | < 4.52 |
| CC(CO)(NC(=O)NCc1ccc(Br)s1)C1CC1 (stereo not given) | < 4.52 |
| COC1CCN(CCNC(=O)NC(C)c2ccc(F)c(F)c2)CC1 (stereo not given) | < 4.52 |
| CC(O)c1cn(Cc2ccc(Cl)cc2)nn1 (stereo not given) | < 4.52 |
| Cc1nc(C)c(CC(=O)N2CCC(c3ccn4nccc4n3)CC2)s1 | < 4.52 |
| CCNC(=O)C1(Cc2cc(-c3ccc(C)cc3)no2)CCCN(C)C1 (stereo not given) | < 4.52 |
| COc1cccc(N2CCC(CNCc3cccc(C#N)c3)C2)c1 (stereo not given) | < 4.52 |
| NC(Cc1nc(-c2ccccc2)no1)c1ccccc1 (stereo not given) | < 4.52 |
| Cc1cc(CN2CCOC(CNc3cccnn3)C2)no1 (stereo not given) | < 4.52 |
| CCNC(=O)NC(=O)CNC(C)(C)c1ccc2c(c1)OCCO2 | < 4.52 |
| Cc1cc(NC(=O)C2CCN(c3ncccc3C#N)CC2)no1 | < 4.30 |
| CN(C)c1nccc(C2CCCCN2Cc2cnn3cccnc23)n1 (stereo not given) | < 4.52 |
| CC(C)n1nnnc1-c1ccc(NC(=O)C(C)(C)C#N)cc1F | < 4.52 |
| COCCC(=O)NCc1ccc(-c2ccccc2C(=O)O)nc1 | < 4.52 |
| CCn1cc(Cl)c(C(=O)NCCCN(C)C)n1 | < 4.52 |
| Cc1csc(CN2CCC(C(=O)O)(n3ccc(-c4ccco4)n3)CC2)n1 | < 4.52 |
| Cc1ncc2c(n1)CCN(CCCc1nc3ccccc3o1)C2 | < 4.30 |
| O=C(CN1CCCC(c2ccn[nH]2)C1)Nc1nncs1 (stereo not given) | < 4.52 |
| O=C(CN1CC(n2cccn2)C1)NCCC1=CCCCC1 | < 4.52 |
| O=C(NCc1ccco1)[C@H]1C[C@@H]2CCN(c3ncccn3)C[C@H]2O1 | < 4.52 |

| SMILES | pIC50 |
| --- | --- |
| CCOCC1CN(Cc2ccoc2)Cc2cn(CC3CC3)nc21 (stereo not given) | < 4.52 |
| Cc1ccnc(N2C[C@@H]3CC[C@H](C2)N(CC2CCC2)C3=O)n1 | < 4.52 |
| CCc1noc(C(C)N2CCN(CCN3CCCC3=O)CC2)n1 (stereo not given) | < 4.52 |
| Cc1nonc1C1CCCN1Cc1ccc(C(=O)Nc2nccs2)cc1 (stereo not given) | < 4.52 |
| Cc1noc([C@@H]2C[C@H](NS(=O)(=O)Cc3ccccc3)CN2C)n1 | < 4.52 |
| Cc1nc(N2CCC(CN3CCCC3)CC2)c2cnn(C)c2n1 | < 4.52 |
| CC1CCN(c2ccc(C(=O)N3CCCC3c3ccc[nH]3)cn2)CC1 (stereo not given) | < 4.52 |
| Cc1ccc(CN2CCC3(CC2)C(=O)Nc2ccccc23)s1 | < 4.52 |
| O=C(NCc1nc(NC2CCCC2)c2cc(Cl)ccc2n1)c1ccoc1 | < 4.52 |
| CCSCc1csc(-c2ccc(S(C)(=O)=O)cc2)n1 | < 4.52 |
| COc1ccccc1N1CCN(CC(=O)NC(C)c2ccco2)CC1 (stereo not given) | < 4.52 |
| Cn1ccnc1-c1cn(Cc2cn3c(n2)SCC3)nn1 | < 4.52 |
| CN1CCOC(CNCc2cccc(OC(F)(F)F)c2)C1 (stereo not given) | < 4.52 |
| CC(C)c1[nH]c2ncccc2c1CN1CCC(O)CC1 | < 4.52 |
| COCCNC(=O)CCNc1cc(C)nc(-c2ccncc2)n1 | < 4.52 |
| Cc1n[nH]c(C)c1NC(=O)CN1CCN(c2nccs2)C(C)C1 (stereo not given) | < 4.52 |
| Cc1nc(C)n(CC2CN(S(C)(=O)=O)Cc3nccn3C2)n1 (stereo not given) | < 4.52 |
| COc1cccc([C@@]2(O)CC[C@@H]3CN(C(=O)c4ccn(C)n4)C[C@@H]32)c1 | < 4.52 |
| O=C(NCc1ccon1)c1c(F)cc(Br)cc1F | < 4.52 |
| Cc1nn(C)c(C)c1NC(=O)CN1CCN(c2nccs2)C(C)C1 (stereo not given) | < 4.52 |
| CC(C)(CNC(=O)C1(c2ccccc2)CCOCC1)C(=O)O | < 4.52 |
| COCCN(C)CC(=O)N1CCCC2(CCC(=O)N(CC3CC3)C2)C1 (stereo not given) | < 4.52 |
| CCC(=O)N1CCCCC1c1nc(O)c2c(n1)CN(S(=O)(=O)CC)CC2 (stereo not given) | < 4.52 |
| CCC(CO)Nc1nc(C(F)F)nc2ccccc12 (stereo not given) | < 4.52 |
| CN(CC(N)=O)C(=O)c1csc(Br)c1 | < 4.52 |

| SMILES | pIC50 |
| --- | --- |
| O=C(c1ccc(-n2cnnn2)cc1)N1CCCC(n2ccnc2)C1 (stereo not given) | < 4.52 |
| Cc1cccc(CNC(=O)NCC2CCN(Cc3ncc[nH]3)C2)c1 (stereo not given) | < 4.52 |
| CN1CCOC(CNCC(=O)NCCC2=CCCCC2)C1 (stereo not given) | < 4.52 |
| O=C(NC[C@H]1OC[C@@H](NCc2ccc(F)cc2)[C@@H]1O)N1CCOCC1 | < 4.52 |
| CCC1CCCCN1C(=O)Cn1nc(-c2ccc(C)o2)cc(N)c1=O (stereo not given) | < 4.30 |
| NC(=O)CN1CCC(NC(=O)COCCOc2ccccc2)CC1 | < 4.52 |
| COC(=O)c1cccc2nc([C@H]3CCN(Cc4ccccc4)C3)oc12 | < 4.52 |
| Cc1c(CN2CCCC(O)C2)[nH]c2ccc(F)cc12 (stereo not given) | < 4.52 |
| O=C(O)c1cc(-c2ccoc2)cc(S(=O)(=O)N2CCSCC2)c1 | < 4.52 |
| Cn1cc(CN2CCCC3(CCN(Cc4ccncc4)C3=O)C2)cn1 (stereo not given) | < 4.52 |
| O=C(NCCc1ccncc1)[C@H]1C[C@@H]2CCN(c3nncs3)C[C@H]2O1 | < 4.52 |
| COc1ccccc1CC(C)CC(=O)NC(C)C (stereo not given) | < 4.52 |
| Cc1ccc(CNCCN2CCOCC2)o1 | < 4.52 |
| CCn1nc(C)c(-c2cncn2Cc2ccccc2CN(C)C)c1C | < 4.52 |
| CCCNC(=O)NC(C)c1ccccn1 (stereo not given) | < 4.52 |
| COc1ccc(CNC(=O)NC(C)(CO)C2CC2)c(C(F)(F)F)c1 (stereo not given) | < 4.52 |
| NC(=O)c1cc2c(nc1Oc1cccc(CN3CCCC3)c1F)CCC2 | < 4.52 |
| CCc1ncc2c(n1)CN(Cc1nc(-c3cccs3)no1)CC2 | < 4.52 |
| CC1c2ncc(Cn3cncn3)n2CCN1C(=O)c1ccsc1 (stereo not given) | < 4.52 |
| CC(C(=O)Nc1ccc(N2CCCCC2)nc1)n1cncn1 (stereo not given) | < 4.52 |
| CC(NC(=O)Nc1cccnc1N1CCCC1)c1ccn(C)c1 (stereo not given) | < 4.52 |
| CC(=O)Nc1nc(C(=O)N2CCCC2c2noc(C3CC3)n2)cs1 (stereo not given) | < 4.52 |
| Cc1cnc(N2CCn3cc(CNC(=O)CC4CC4)nc3C2)nc1 | < 4.52 |
| Nc1ccncc1-n1cc(CCO)cn1 | < 4.52 |
| CC[C@@H](Cn1ncc2ccccc2c1=O)NC(=O)c1ccco1 | < 4.52 |

— ChEMBL document CHEMBL3988442, “University of Dundee, Small-Polar-MMV Screening Library” (2021)
